Test results as given in patent US20240316051A1, “A PHARMACEUTICAL COMBINATION AND USE THEREOF” (Ascentage Pharma (Suzhou) Co., Ltd., priority 2021, published 2024).

biological target: T1, EED (1-441)-His protein (Homo sapiens, UniProt O75530); assay: EED-H3K27Me3 peptide competition binding assay by AlphaScreen; conditions: IC50 class, Table 4B, read-out: Alpha screen
T1 construct: 20 nM EED (1-441)-His protein
Summary of the method: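 EED(1-441)-His was preincubated 15 min with compound, then biotin-H3K27Me3(19-33) peptide added for 30 min; both were added as 20 nM solutions in 25 mM HEPES pH 8, 0.02% Tween-20, 0.5% BSA. Ni-chelate acceptor and streptavidin donor beads (10 μg/ml each final) were added for 1 h in the dark at RT. Signal read at 615 nm (680 nm excitation), normalised to controls and fitted to dose-response for IC50.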

T1 sequence (O75530 whole entry): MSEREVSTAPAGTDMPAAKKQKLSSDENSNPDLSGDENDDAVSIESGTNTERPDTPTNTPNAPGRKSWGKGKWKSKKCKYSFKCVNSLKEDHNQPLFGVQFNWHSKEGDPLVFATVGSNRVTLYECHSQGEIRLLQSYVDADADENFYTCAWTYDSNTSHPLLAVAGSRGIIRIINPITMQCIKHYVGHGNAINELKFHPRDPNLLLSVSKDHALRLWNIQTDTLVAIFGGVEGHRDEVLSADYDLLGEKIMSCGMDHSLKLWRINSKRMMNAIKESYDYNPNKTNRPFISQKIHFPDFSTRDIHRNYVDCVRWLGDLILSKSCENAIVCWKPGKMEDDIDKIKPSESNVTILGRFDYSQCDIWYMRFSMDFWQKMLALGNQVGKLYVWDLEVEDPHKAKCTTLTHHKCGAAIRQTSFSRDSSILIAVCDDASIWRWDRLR

Question: `CCc1cnc2n1Cc1cc(C(F)(F)F)ncc1-c1cnc(NCc3c(F)ccc4c3CCO4)n3cnc-2c13` [E 37, 5-ethyl-N-((5-fluoro-2,3-dihydrobenzofuran-4-yl)methyl)-8-(trifluoromethyl)-6H-2,3,5a,9,12,13a-hexaazabenzo[4,5]cyclopenta[7,8]cycloocta[1,2,3-cd]inden-13-amine] was tested. Which IC50 did it give?
Answer: 10 to 100 nM

Question: With `Cc1onc2c1Cc1cc(C(F)(F)F)ncc1-c1cnc(NCc3c(F)ccc4c3CCO4)n3cnc-2c13` [E 35, N-((5-fluoro-2,3-dihydrobenzofuran-4-yl)methyl)-5-methyl-8-(trifluoromethyl)-6H-4-oxa-2,3,9,12, 13a-pentaazabenzo[4,5]cyclopenta[7,8]cycloocta [1,2,3-cd]inden-13-amine] as the compound, how does the IC50 read?
Answer: 10 to 100 nM

Question: For `CC(C)N1CCc2cc(C(F)(F)F)ncc2-c2cnc(NCc3c(F)ccc4c3CCO4)n3cnc(c23)C1=O` [E 31, 13-(((5-fluoro-2,3-dihydrobenzofuran-4-yl)methyl)amino)-4-isopropyl-8-(trifluoromethyl)-5,6-dihydro-2,4,9,12,13a-pentaazabenzo[4,5]cyclonona[1,2,3-cd]inden-3(4H)-one], which IC50 is on record?
Answer: 10 to 100 nM

Question: For `CC(C)N1Cc2cc(C#N)ccc2-c2cnc(NCc3c(F)ccc4c3CCO4)n3cnc(c23)C1=O` [E 4, 12-(((5-fluoro-2,3-dihydrobenzofuran-4-yl)methyl)amino)-4-isopropyl-3-oxo-4,5-dihydro-3H-2,4,11, 12a-tetraazabenzo[4,5]cycloocta[1,2,3-cd]indene-7-carbonitrile], which IC50 is on record?
Answer: < 10 nM

Question: Which IC50 does the source give for `Fc1ccc2c(c1CNc1ncc3c4c(ncn14)-c1nccn1Cc1nc(C(F)(F)F)ccc1-3)CCO2` [E 32, N-((5-fluoro-2,3-dihydrobenzofuran-4-yl)methyl)-8-(trifluoromethyl)-6H-2,3,5a,7,12,13a-hexaaza-benzo[4,5]cyclopenta[7,8]cycloocta[1,2,3-cd]inden-13-amine] here?
Answer: 10 to 100 nM

Question: `CC(C)(C)c1cc2c(cn1)-c1cnc(NCc3c(F)ccc4c3CCO4)n3cnc(c13)C(=O)N(CC(F)(F)F)C2` [E 46, 7-(tert-butyl)-12-(((5-fluoro-2,3-dihydrobenzofuran-4-yl)methyl)amino)-4-(2,2,2-trifluoroethyl)-4,5-dihydro-3H-2,4,8,11,12a-pentaazabenzo[4,5]cyclo octa[1,2,3-cd]inden-3-one] was tested. Which IC50 did it give?
Answer: < 10 nM

Question: `CC(C)N1Cc2cc(C(F)F)ncc2-c2cnc(NCc3c(F)ccc4c3CCO4)n3cnc(c23)C1=O` [E 11, 7-(difluoromethyl)-12-(((5-fluoro-2,3-dihydro-benzofuran-4-yl)methyl)amino)-4-isopropyl-4,5-dihydro-3H-2,4,8,11,12a-pentaazabenzo[4,5] cycloocta[1,2,3-cd]inden-3-one] was tested. Which IC50 did it give?
Answer: < 10 nM

same assay, conditions: Table 4A, read-out: Alpha screen

Question: Which IC50 does the source give for `O=C1OCc2cnc(C(F)(F)F)cc2-c2cnc(NCc3c(F)ccc4c3CCO4)n3cnc1c23` [Compound 32, 12-(((5-fluoro-2,3-dihydrobenzofuran-4-yl)methyl)amino)-8-(trifluoromethyl)-3H,5H-4-oxa-2,7,11, 12a-tetraazabenzo[4,5]cycloocta[1,2,3-cd]inden-3-one] here?
Answer: 1.84 nM

Question: `O=C1c2ncn3c(NCc4c(F)ccc5c4CCO5)ncc(c23)-c2ccc(C(F)(F)F)cc2CN1CC1COCCO1` (centres unmarked) [Compound 68, 4-((1,4-dioxan-2-yl)methyl)-12-(((5-fluoro-2,3-dihydrobenzofuran-4-yl)methyl)amino)-7-(trifluoro-methyl)-4,5-dihydro-3H-2,4,11,12a-tetraazabenzo [4,5]cycloocta[1,2,3-cd]inden-3-one] was tested. Which IC50 did it give?
Answer: 3.86 nM

Question: For `CC(C)N1Cc2nc(C(F)(F)F)ccc2-c2cnc(NCc3c(F)ccc4c3CCO4)n3cnc(c23)C1=O` [Compound 59, 12-(((5-fluoro-2,3-dihydrobenzofuran-4-yl)methyl)amino)-4-isopropyl-7-(trifluoromethyl)-4,5-dihydro-3H-2,4,6,11,12a-pentaazabenzo[4,5]cycloocta [1,2,3-cd]inden-3-one], which IC50 is on record?
Answer: 2.14 nM

Question: With `O=C1NCc2cc(C(F)(F)F)ncc2-c2cnc(NCc3c(F)ccc4c3CCO4)n3cnc1c23` [Compound 22, 12-(((5-fluoro-2,3-dihydrobenzofuran-4-yl)methyl)amino)-7-(trifluoromethyl)-4,5-dihydro-3H-2,4,8, 11,12a-pentaazabenzo[4,5]cycloocta[1,2,3-cd] inden-3-one] as the compound, how does the IC50 read?
Answer: 0.67 nM

Question: Which IC50 does the source give for `Cn1ncc2c1CNC(=O)c1ncn3c(NCc4c(F)ccc5c4CCO5)ncc-2c13` [Compound 53, 11-(((5-fluoro-2,3-dihydrobenzofuran-4-yl)methyl)amino)-6-methyl-5,6-dihydro-2,4,6,7,10,11a-hexaazacyclopenta[4,5]cycloocta[1,2,3-cd]inden-3(4H)-one] here?
Answer: 3.96 nM

Question: How did the IC50 turn out when `O=C1c2ncn3c(NCc4c(F)ccc5c4CCO5)ncc(c23)-c2cnc(C(F)(F)F)cc2CN1CC1(O)CC1` [Compound 43, 12-(((5-fluoro-2,3-dihydrobenzofuran-4-yl)methyl)amino)-4-((1-hydroxycyclopropyl)methyl)-7-(trifluoromethyl)-4,5-dihydro-3H-2,4,8,11,12a-pentaazabenzo[4,5]cycloocta[1,2,3-cd]inden-3-one] was run?
Answer: 1.05 nM

Question: For `O=C1Nc2ccccc2-c2cnc(NCc3c(F)ccc4c3CCO4)n3cnc1c23` [Compound 3, 11-(((5-fluoro-2,3-dihydrobenzofuran-4-yl)methyl)amino)-2,4,10,11a-tetraazadibenzo[cd,f]azulen-3(4H)-one], which IC50 is on record?
Answer: 6.88 nM

Question: How did the IC50 turn out when `O=C1c2ncn3c(NCc4c(F)ccc5c4CCO5)ncc(c23)-c2ccc(C(F)(F)F)cc2CN1CCF` [Compound 61, 12-(((5-fluoro-2,3-dihydrobenzofuran-4-yl)methyl)amino)-4-(2-fluoroethyl)-7-(trifluoromethyl)-4,5-dihydro-3H-2,4,11,12a-tetraazabenzo[4,5] cycloocta[1,2,3-cd]inden-3-one] was run?
Answer: 1.19 nM

Question: For `O=C1c2ncn3c(NCc4c(F)ccc5c4CCO5)ncc(c23)-c2ccc(C(F)(F)F)nc2CN1CC1(O)CC1` [Compound 44, 12-(((5-fluoro-2,3-dihydrobenzofuran-4-yl)methyl)amino)-4-((1-hydroxycyclopropyl)methyl)-7-(trifluoromethyl)-4,5-dihydro-3H-2,4,6,11,12a-pentaazabenzo[4,5]cycloocta[1,2,3-cd]inden-3-one], which IC50 is on record?
Answer: 1.34 nM

Question: How did the IC50 turn out when `Cc1ccc2c(n1)CS(=O)(=O)c1ncn3c(NCc4c(F)ccc5c4CCO5)ncc-2c13` [Compound 95, 11-(((5-fluoro-2,3-dihydrobenzofuran-4-yl)methyl)amino)-6-methyl-4H-3-thia-2,5,10,11a-tetraazadibenzo[cd,f]azulene 3,3-dioxide] was run?
Answer: 13.1 nM

Question: How did the IC50 turn out when `O=C1OCc2ncccc2-c2cnc(NCc3c(F)ccc4c3CCO4)n3cnc1c23` [Compound 12, 12-(((5-fluoro-2,3-dihydrobenzofuran-4-yl)methyl)amino)-3H,5H-4-oxa-2,6,11,12a-tetraazabenzo[4,5]cycloocta[1,2,3-cd]inden-3-one] was run?
Answer: 0.34 nM

Question: `Cc1nc2c(s1)-c1cnc(NCc3c(F)ccc4c3CCO4)n3cnc(c13)C(=O)N(C1CC1)C2` [Compound 86, 4-cyclopropyl-11-(((5-fluoro-2,3-dihydrobenzofuran-4-yl)methyl)amino)-7-methyl-4,5-dihydro-3H-8-thia-2,4,6,10,11a-pentaazacyclopenta[4,5] cycloocta[1,2,3-cd]inden-3-one] was tested. Which IC50 did it give?
Answer: 2.56 nM

Question: `COc1cccc(F)c1CNc1ncc2c3c(ncn13)C(=O)N(C(C)C)Cc1nc(C(F)(F)F)ccc1-2` [Compound 71, 12-((2-fluoro-6-methoxybenzyl)amino)-4-isopropyl-7-(trifluoromethyl)-4,5-dihydro-3H-2,4,6,11,12a-pentaazabenzo[4,5]cycloocta[1,2,3-cd]inden-3-one] was tested. Which IC50 did it give?
Answer: 8.94 nM

Question: `O=C1c2ncn3c(NCc4c(F)ccc5c4CCO5)ncc(c23)-c2cnc(C(F)(F)F)cc2CN1CC1CCOCC1` [Compound 45, 12-(((5-fluoro-2,3-dihydrobenzofuran-4-yl)methyl)amino)-4-((tetrahydro-2H-pyran-4-yl)methyl)-7-(trifluoromethyl)-4,5-dihydro-3H-2,4,8,11,12a-pentaazabenzo[4,5]cycloocta[1,2,3-cd]inden-3-one] was tested. Which IC50 did it give?
Answer: 3.39 nM

Question: With `O=C1OCc2nc(C(F)(F)F)ccc2-c2cnc(NCc3c(F)ccc4c3CCO4)n3cnc1c23` [Compound 14, 12-(((5-fluoro-2,3-dihydrobenzofuran-4-yl)methyl)amino)-7-(trifluoromethyl)-3H,5H-4-oxa-2,6,11, 12a-tetraazabenzo[4,5]cycloocta[1,2,3-cd]inden-3-one] as the compound, how does the IC50 read?
Answer: 3.35 nM

Question: With `O=C1NCc2ccc(F)cc2-c2cnc(NCc3c(F)ccc4c3CCO4)n3cnc1c23` [Compound 23, 8-fluoro-12-(((5-fluoro-2,3-dihydrobenzofuran-4-yl)methyl)amino)-4,5-dihydro-3H-2,4,11,12a-tetra azabenzo[4,5]cycloocta[1,2,3-cd]inden-3-one] as the compound, how does the IC50 read?
Answer: 1.18 nM

Question: With `O=C1c2ncn3c(NCc4c(F)ccc5c4CCO5)ncc(c23)-c2cnc(C(F)(F)F)cc2CN1C1CC1` [Compound 36, 4-cyclopropyl-12-(((5-fluoro-2,3-dihydrobenzofuran-4-yl)methyl)amino)-7-(trifluoromethyl)-4,5-dihydro-3H-2,4,8,11,12a-pentaazabenzo[4,5]cycloocta[1,2,3-cd]inden-3-one] as the compound, how does the IC50 read?
Answer: 1.44 nM

Question: Which IC50 does the source give for `Cc1nn(C)c2c1-c1cnc(NCc3c(F)ccc4c3CCO4)n3cnc(c13)C(=O)N(C1CC1)C2` [Compound 56, 4-cyclopropyl-11-(((5-fluoro-2,3-dihydrobenzo-furan-4-yl)methyl)amino)-6,8-dimethyl-5,6-dihydro-2,4,6,7,10,11a-hexaazacyclopenta[4,5]cycloocta [1,2,3-cd]inden-3(4H)-one] here?
Answer: 4.49 nM

Question: How did the IC50 turn out when `O=C1c2ncn3c(NCc4c(F)ccc5c4CCO5)ncc(c23)-c2cnc(C(F)(F)F)cc2CN1C1CC(F)(F)C1` [Compound 85, 4-(3,3-difluorocyclobutyl)-12-(((5-fluoro-2,3-dihydrobenzofuran-4-yl)methyl)amino)-7-(trifluoro-methyl)-4,5-dihydro-3H-2,4,8,11,12a-pentaazabenzo [4,5]cycloocta[1,2,3-cd]inden-3-one] was run?
Answer: 9.82 nM
